Source: US20250144105A1, “CDK9 INHIBITORS” (Origenis GmbH, priority 2022, published 2025)

Target: T1, CDK9/CyclinT1 (Homo sapiens, UniProt P50750)
T1 construct: purchased ProQinase/Reaction Biology, USA 0371-0345-1
Assay: CDK9/T1 ADPGlo kinase assay for inhibitory activity
Type: biochemical
Details: CDK9/CyclinT1 6 nM, PDKtide 40 microM, ATP 10 microM, 120 min at RT, luminescence readout
Method: The testing compound was evaluated in 12 concentrations in a 1:3 dilution series, starting from 5 microM as the highest concentration.
In a white 384 microplate (Greiner bio-one, Austria #784904,) with 2 microL of 3-fold concentrated CDK9/CyclinT1 (ProQinase/Reaction Biology, USA #0371-0345-1, LOT.: 012), final concentration (f.c.) 6 nM, in 1× kinase buffer, 2 microL of compound (3× fold concentrated in f.c. 1.66% DMSO/H2O) was added and incubated at Room Temperature (RT) for 10 min. Then 2 microL of Substrate/ATP-Mix (3× PDKtide f.c. 40 microM, SignalChem Biotech, Canada via Biozol, Eching, Germany #P10-58, LOT.: L2230-7 and 3× UltraPure ATP f.c. 10 microM (ADP Glo Kinase assay, Promega GmbH, Germany #V9102)) were added, mixed and incubated for 120 min at RT.
After incubation time, 5 microL of ADP Glo reagent (ready to use, ADP Glo Kinase assay, Promega GmbH, Germany #V9102) were added, mixed and incubated for 40 min at RT. In the last step, 10 microL of ADP Glo Detection reagent (ready to use, ADP Glo Kinase assay, Promega GmbH, Germany #V9102) were added, mixed and incubated for 30 min at RT. GloMax Discover GM3000 Reader (Promega GmbH, Germany 9700000249) was used for the readout.
The inhibitor concentration was plotted against the luminescence to determine the IC50 using XLFit 5.5 (IDBS, Guildford) to fit to a sigmoidal dose response curve with a variable slope.

T1 sequence (P50750 whole entry): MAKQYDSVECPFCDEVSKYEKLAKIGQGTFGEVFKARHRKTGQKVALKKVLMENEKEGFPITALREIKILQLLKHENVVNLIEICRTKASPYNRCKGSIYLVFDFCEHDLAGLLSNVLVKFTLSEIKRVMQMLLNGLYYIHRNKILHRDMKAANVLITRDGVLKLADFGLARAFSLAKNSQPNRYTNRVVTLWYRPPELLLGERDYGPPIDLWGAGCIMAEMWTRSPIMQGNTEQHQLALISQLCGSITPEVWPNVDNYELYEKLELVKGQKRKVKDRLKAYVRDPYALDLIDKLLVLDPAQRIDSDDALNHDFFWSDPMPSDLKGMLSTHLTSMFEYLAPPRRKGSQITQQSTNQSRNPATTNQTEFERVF
T1 sequence (O60563 whole entry partner): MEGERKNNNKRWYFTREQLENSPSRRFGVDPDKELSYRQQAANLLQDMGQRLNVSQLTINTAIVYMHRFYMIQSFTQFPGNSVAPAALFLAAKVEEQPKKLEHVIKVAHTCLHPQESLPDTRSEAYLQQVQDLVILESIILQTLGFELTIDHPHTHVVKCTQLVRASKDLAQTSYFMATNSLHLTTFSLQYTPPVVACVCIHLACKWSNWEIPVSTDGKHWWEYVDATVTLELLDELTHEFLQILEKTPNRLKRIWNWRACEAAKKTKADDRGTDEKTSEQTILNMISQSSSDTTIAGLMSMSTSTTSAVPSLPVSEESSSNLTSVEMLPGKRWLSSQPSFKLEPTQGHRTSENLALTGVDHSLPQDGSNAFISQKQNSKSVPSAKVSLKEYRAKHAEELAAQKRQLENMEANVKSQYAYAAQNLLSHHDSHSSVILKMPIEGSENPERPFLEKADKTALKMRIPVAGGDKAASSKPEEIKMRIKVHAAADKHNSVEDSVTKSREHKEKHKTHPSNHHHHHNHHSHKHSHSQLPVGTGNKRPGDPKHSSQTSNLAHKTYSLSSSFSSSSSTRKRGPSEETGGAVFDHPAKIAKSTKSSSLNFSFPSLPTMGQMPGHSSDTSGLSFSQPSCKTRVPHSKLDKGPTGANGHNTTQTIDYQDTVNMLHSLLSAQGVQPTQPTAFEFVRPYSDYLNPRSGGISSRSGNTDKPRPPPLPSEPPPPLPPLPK

Structure (SMILES)	IC50
FCCCN[C@H]1CC[C@H](Nc2nc(-c3c(F)cccc3F)nn3c(Cl)cnc23)CC1 [Example #9, (1r,4r)-N1-(7-chloro-2-(2,6-difluorophenyl)imidazo[2,1-f][1,2,4]triazin-4-yl)-N4-(3-fluoropropyl)cyclohexane-1,4-diamine]	< 20 nM
Fc1cccc(F)c1-c1nc(NCC2CCNCC2)c2ncc(Cl)n2n1 [Example #21, 7-chloro-2-(2,6-difluorophenyl)-N-(piperidin-4-ylmethyl)imidazo[2,1-f][1,2,4]triazin-4-amine]	< 200 nM
COCCN[C@H]1CC[C@H](Nc2nc(-c3c(F)cccc3F)nn3c(Cl)cnc23)CC1 [Example #7, (1r,4r)-N1-(7-chloro-2-(2,6-difluorophenyl)imidazo[2,1-f][1,2,4]triazin-4-yl)-N4-(2-methoxyethyl)cyclohexane-1,4-diamine]	< 20 nM
Fc1cccc(F)c1-c1nc(NC2CCN(C3CCOCC3)CC2)c2ncc(Cl)n2n1 [Example #11, 7-chloro-2-(2,6-difluorophenyl)-N-(1-(tetrahydro-2H-pyran-4-yl)piperidin-4-yl)imidazo[2,1-f][1,2,4]triazin-4-amine]	< 200 nM
CN(C)[C@H]1CC[C@H](Nc2nc(-c3c(F)cccc3F)nn3c(Cl)cnc23)CC1 [Example #3, (1r,4r)-N1-(7-chloro-2-(2,6-difluorophenyl)imidazo[2,1-f][1,2,4]triazin-4-yl)-N4,N4-dimethylcyclohexane-1,4-diamine]	< 20 nM
NC1CCC(Nc2nc(-c3c(F)cccc3F)nn3c(Cl)cnc23)C1 (stereo not shown) [Example #24, N1-(7-chloro-2-(2,6-difluorophenyl)imidazo[2,1-f][1,2,4]triazin-4-yl)cyclopentane-1,3-diamine]	< 20 nM
CN1CCC(Nc2nc(-c3c(F)cccc3F)nn3c(Cl)cnc23)CC1 [Example #13, 7-chloro-2-(2,6-difluorophenyl)-N-(1-methylpiperidin-4-yl)imidazo[2,1-f][1,2,4]triazin-4-amine]	< 20 nM
Fc1cccc(F)c1-c1nc(NC2CN3CCC2CC3)c2ncc(Cl)n2n1 (stereo not shown) [Example #18, (1-Aza-bicyclo[2.2.2]oct-3-yl)-[7-chloro-2-(2,6-difluoro-phenyl)-imidazo[2,1-f][1,2,4]triazin-4-yl]-amine]	< 200 nM
Fc1cccc(F)c1-c1nc(NCc2cccnc2)c2ncc(Cl)n2n1 [Example #36, 7-chloro-2-(2,6-difluorophenyl)-N-(pyridin-3-ylmethyl)imidazo[2,1-f][1,2,4]triazin-4-amine]	< 200 nM
Cc1cc(C)c(CNc2nc(-c3c(F)cccc3F)nn3c(Cl)cnc23)cn1 [Example #37, 7-chloro-2-(2,6-difluorophenyl)-N-((4,6-dimethylpyridin-3-yl)methyl)imidazo[2,1-f][1,2,4]triazin-4-amine]	< 200 nM
CN1CCC(CNc2nc(-c3c(F)cccc3F)nn3c(Cl)cnc23)CC1 [Example #17, [7-Chloro-2-(2,6-difluoro-phenyl)-imidazo[2,1-f][1,2,4]triazin-4-yl]-(1-methyl-piperidin-4-ylmethyl)-amine]	< 20 nM
Fc1cccc(F)c1-c1nc(N[C@H]2CC[C@H](N3CCCC3)CC2)c2ncc(Cl)n2n1 [Example #6, 7-chloro-2-(2,6-difluorophenyl)-N-((1r,4r)-4-(pyrrolidin-1-yl)cyclohexyl)imidazo[2,1-f][1,2,4]triazin-4-amine]	< 20 nM
CC(C)(C)OC(=O)N1CCCC(CNc2nc(-c3c(F)cccc3F)nn3c(Cl)cnc23)C1 (stereo not shown) [Example #20, tert-butyl 3-(((7-chloro-2-(2,6-difluorophenyl)imidazo[2,1-f][1,2,4]triazin-4-yl)amino)methyl)piperidine-1-carboxylate]	< 200 nM
OCCN[C@H]1CC[C@H](Nc2nc(-c3c(F)cccc3F)nn3c(Cl)cnc23)CC1 [Example #32, 2-(((1r,4r)-4-((7-chloro-2-(2,6-difluorophenyl)imidazo[2,1-f][1,2,4]triazin-4-yl)amino)cyclohexyl)amino)ethan-1-ol]	< 20 nM

Results, then the compound that gave them:

IC50	Structure (SMILES)
< 20 nM	FCCN[C@H]1CC[C@H](Nc2nc(-c3c(F)cccc3F)nn3c(Cl)cnc23)CC1 [Example #8, (1r,4r)-N1-(7-chloro-2-(2,6-difluorophenyl)imidazo[2,1-f][1,2,4]triazin-4-yl)-N4-(2-fluoroethyl)cyclohexane-1,4-diamine]
< 200 nM	Fc1cccc(F)c1-c1nc(NCCN2CCOCC2)c2ncc(Cl)n2n1 [Example #19, [7-Chloro-2-(2,6-difluoro-phenyl)-imidazo[2,1-f][1,2,4]triazin-4-yl]-(2-morpholin-4-yl-ethyl)-amine]
< 200 nM	Fc1cccc(F)c1-c1nc(NC2CCN(C3CCCC3)CC2)c2ncc(Cl)n2n1 [Example #12, 7-chloro-N-(1-cyclopentylpiperidin-4-yl)-2-(2,6-difluorophenyl)imidazo[2,1-f][1,2,4]triazin-4-amine]
< 20 nM	Clc1cccc(Cl)c1-c1nc(N[C@H]2CC[C@H](N3CCOCC3)CC2)c2ncc(Cl)n2n1 [Example #28, 7-chloro-2-(2,6-dichlorophenyl)-N-((1r,4r)-4-morpholinocyclohexyl)imidazo[2,1-f][1,2,4]triazin-4-amine]
< 200 nM	CCN1CCCC1CNc1nc(-c2c(F)cccc2F)nn2c(Cl)cnc12 (stereo not shown) [Example #15, 7-chloro-2-(2,6-difluorophenyl)-N-((1-ethylpyrrolidin-2-yl)methyl)imidazo[2,1-f][1,2,4]triazin-4-amine]
< 20 nM	Fc1cccc(F)c1-c1nc(N[C@H]2CC[C@H](N3CCCCC3)CC2)c2ncc(Cl)n2n1 [Example #5, 7-chloro-2-(2,6-difluorophenyl)-N-((1r,4r)-4-(piperidin-1-yl)cyclohexyl)imidazo[2,1-f][1,2,4]triazin-4-amine]
< 20 nM	Fc1cccc(F)c1-c1nc(NC2CCNCC2)c2ncc(Cl)n2n1 [Example #16, [7-Chloro-2-(2,6-difluoro-phenyl)-imidazo[2,1-f][1,2,4]triazin-4-yl]-piperidin-4-yl-amine]
< 200 nM	CN1CCCCC1CNc1nc(-c2c(F)cccc2F)nn2c(Cl)cnc12 (stereo not shown) [Example #14, [7-Chloro-2-(2,6-difluoro-phenyl)-imidazo[2,1-f][1,2,4]triazin-4-yl]-(1-methyl-piperidin-2-ylmethyl)-amine]
< 20 nM	N[C@H]1CC[C@H](Nc2nc(-c3c(F)cccc3F)nn3c(Cl)cnc23)CC1 [Example #4, (1r,4r)-N1-(7-chloro-2-(2,6-difluorophenyl)imidazo[2,1-f][1,2,4]triazin-4-yl)cyclohexane-1,4-diamine]
< 20 nM	Fc1cccc(F)c1-c1nc(N[C@H]2CC[C@H](N3CCOCC3)CC2)c2ncc(Cl)n2n1 [Example #1, 7-chloro-2-(2,6-difluorophenyl)-N-((1r,4r)-4-morpholinocyclohexyl)imidazo[2,1-f][1,2,4]triazin-4-amine]
< 200 nM	CC(C)N1CCC(Nc2nc(-c3c(F)cccc3F)nn3c(Cl)cnc23)CC1 [Example #10, 7-chloro-2-(2,6-difluorophenyl)-N-(1-isopropylpiperidin-4-yl)imidazo[2,1-f][1,2,4]triazin-4-amine]
< 20 nM	CN1CCN([C@H]2CC[C@H](Nc3nc(-c4c(F)cccc4F)nn4c(Cl)cnc34)CC2)CC1 [Example #38, 7-chloro-2-(2,6-difluorophenyl)-N-((1r,4r)-4-(4-methylpiperazin-1-yl)cyclohexyl)imidazo[2,1-f][1,2,4]triazin-4-amine]
< 20 nM	Fc1cccc(Cl)c1-c1nc(N[C@H]2CC[C@H](N3CCOCC3)CC2)c2ncc(Cl)n2n1 [Example #27, 7-chloro-2-(2-chloro-6-fluorophenyl)-N-((1r,4r)-4-morpholinocyclohexyl)imidazo[2,1-f][1,2,4]triazin-4-amine]
< 200 nM	Fc1cccc(F)c1-c1nc(NCC2CCCNC2)c2ncc(Cl)n2n1 (stereo not shown) [Example #22, 7-chloro-2-(2,6-difluorophenyl)-N-(piperidin-3-ylmethyl)imidazo[2,1-f][1,2,4]triazin-4-amine]
